According to the NIST ThermoML archive (doi:10.1016/j.jct.2017.01.016):

Test: xn = mol fraction of the nth substance listed
Settings: 101 kPa, Liquid; for viscosity: Capillary tube (Ostwald / Ubbelohde) method; for speed of sound: Frequency=3 MHz, Linear variable-path acoustic interferometer

C1COCCO1 [1,4-dioxane] + c1ccccc1
Settings | speed of sound [m/s] | viscosity [mPa·s]
293.15 K, x1 = 0.0713 | 1329.8 | 0.6955
293.15 K, x1 = 0.1403 | 1334.5 | 0.7421
293.15 K, x1 = 0.2123 | 1339.4 | 0.7905
293.15 K, x1 = 0.2809 | 1343.6 | 0.8364
293.15 K, x1 = 0.3528 | 1347.9 | 0.8842
293.15 K, x1 = 0.4195 | 1351.5 | 0.9283
293.15 K, x1 = 0.5037 | 1355.8 | 0.9838
293.15 K, x1 = 0.58 | 1359.2 | 1.034
293.15 K, x1 = 0.6504 | 1362.2 | 1.08
293.15 K, x1 = 0.7197 | 1364.2 | 1.125
293.15 K, x1 = 0.7822 | 1365.4 | 1.165
293.15 K, x1 = 0.8561 | 1366.9 | 1.213
293.15 K, x1 = 0.9287 | 1367.4 | 1.26
293.15 K, x1 = 1 | 1367.2 | 1.306
298.15 K, x1 = 0.0713 | 1304 | 0.6485
298.15 K, x1 = 0.1403 | 1308.1 | 0.6905
298.15 K, x1 = 0.2123 | 1312.5 | 0.7339
298.15 K, x1 = 0.2809 | 1316.5 | 0.775
298.15 K, x1 = 0.3528 | 1320.5 | 0.8179
298.15 K, x1 = 0.4195 | 1324 | 0.8574
298.15 K, x1 = 0.5037 | 1328.2 | 0.907
298.15 K, x1 = 0.58 | 1332 | 0.9517
298.15 K, x1 = 0.6504 | 1335.1 | 0.9928
298.15 K, x1 = 0.7197 | 1337.5 | 1.033
298.15 K, x1 = 0.7822 | 1339.8 | 1.069
298.15 K, x1 = 0.8561 | 1342 | 1.112
298.15 K, x1 = 0.9287 | 1343.7 | 1.154
298.15 K, x1 = 1 | 1344.7 | 1.195
303.15 K, x1 = 0.0713 | 1279.4 | 0.6068
303.15 K, x1 = 0.1403 | 1283 | 0.6446
303.15 K, x1 = 0.2123 | 1287 | 0.6836
303.15 K, x1 = 0.2809 | 1290.6 | 0.7206
303.15 K, x1 = 0.3528 | 1294.2 | 0.7591
303.15 K, x1 = 0.4195 | 1297.6 | 0.7946
303.15 K, x1 = 0.5037 | 1301.8 | 0.839
303.15 K, x1 = 0.58 | 1305.7 | 0.879
303.15 K, x1 = 0.6504 | 1309.2 | 0.9157
303.15 K, x1 = 0.7197 | 1312.3 | 0.9517
303.15 K, x1 = 0.7822 | 1315.1 | 0.9841
303.15 K, x1 = 0.8561 | 1318.2 | 1.022
303.15 K, x1 = 0.9287 | 1320.8 | 1.059
303.15 K, x1 = 1 | 1323.1 | 1.096
308.15 K, x1 = 0.0713 | 1255.4 | 0.5686
308.15 K, x1 = 0.1403 | 1258.7 | 0.6033
308.15 K, x1 = 0.2123 | 1262 | 0.6392
308.15 K, x1 = 0.2809 | 1265.1 | 0.673
308.15 K, x1 = 0.3528 | 1268.7 | 0.7082
308.15 K, x1 = 0.4195 | 1272 | 0.7406
308.15 K, x1 = 0.5037 | 1276.1 | 0.7812
308.15 K, x1 = 0.58 | 1280.2 | 0.8176
308.15 K, x1 = 0.6504 | 1284 | 0.851
308.15 K, x1 = 0.7197 | 1287.4 | 0.8837
308.15 K, x1 = 0.7822 | 1290.8 | 0.9131
308.15 K, x1 = 0.8561 | 1294.5 | 0.9477
308.15 K, x1 = 0.9287 | 1297.9 | 0.9815
308.15 K, x1 = 1 | 1301.2 | 1.014
313.15 K, x1 = 0.0713 | 1231.7 | 0.532
313.15 K, x1 = 0.1403 | 1234.3 | 0.5644
313.15 K, x1 = 0.2123 | 1237.2 | 0.5979
313.15 K, x1 = 0.2809 | 1240.5 | 0.6294
313.15 K, x1 = 0.3528 | 1244 | 0.6621
313.15 K, x1 = 0.4195 | 1247.1 | 0.6921
313.15 K, x1 = 0.5037 | 1251.3 | 0.7297
313.15 K, x1 = 0.58 | 1255.5 | 0.7634
313.15 K, x1 = 0.6504 | 1259.4 | 0.7943
313.15 K, x1 = 0.7197 | 1263.5 | 0.8245
313.15 K, x1 = 0.7822 | 1266.8 | 0.8516
313.15 K, x1 = 0.8561 | 1271.2 | 0.8835
313.15 K, x1 = 0.9287 | 1275.3 | 0.9146
313.15 K, x1 = 1 | 1279.7 | 0.945
318.15 K, x1 = 0.0713 | 1209.6 | 0.4993
318.15 K, x1 = 0.1403 | 1211.9 | 0.5297
318.15 K, x1 = 0.2123 | 1214.5 | 0.5611
318.15 K, x1 = 0.2809 | 1217.2 | 0.5906
318.15 K, x1 = 0.3528 | 1220.5 | 0.6211
318.15 K, x1 = 0.4195 | 1223.6 | 0.6492
318.15 K, x1 = 0.5037 | 1227.9 | 0.6842
318.15 K, x1 = 0.58 | 1232.1 | 0.7156
318.15 K, x1 = 0.6504 | 1236 | 0.7443
318.15 K, x1 = 0.7197 | 1240.1 | 0.7724
318.15 K, x1 = 0.7822 | 1243.9 | 0.7975
318.15 K, x1 = 0.8561 | 1248.8 | 0.8271
318.15 K, x1 = 0.9287 | 1253.6 | 0.8559
318.15 K, x1 = 1 | 1258.6 | 0.884
